Reference: ChEMBL document CHEMBL4229464, “Generation of methylated violapyrones with improved anti-influenza A virus activity by heterologous expression of a type III PKS gene in a marine Streptomyces strain” (Bioorg Med Chem Lett, 2018)

Key:
[1] = tested on: Influenza A virus; assay: Antiviral activity against Influenza A virus (A/Virginia/ATCC1/2009(H1N1)) infected in MDCK cells assessed as inhibition of virus-induced cytopathicity after 48 hrs by crystal violet staining based method; format: functional, organism-based
[2] = tested on: H3N2 subtype; assay: Antiviral activity against Influenza A virus (A/Aichi/2/1968(H3N2)) infected in MDCK cells assessed as inhibition of virus-induced cytopathicity after 48 hrs by crystal violet staining based method; format: functional, organism-based
[3] = Cytotoxicity against MDCK cells assessed as reduction in cell viability after 48 hrs by crystal violet staining based method; set-up: species or system Canis lupus familiaris; details: dog
[4] = tested on: Staphylococcus aureus; assay: Antibacterial activity against methicillin-resistant Staphylococcus aureus CCARM 3090 at 10 mg/ml after 20 hrs by agar diffusion method; format: functional; details: CCARM 3090, 20 h, read-out: IZ

| SMILES | IC50 [1] | IC50 [2] | CC50 at 48 h [3] | zone of inhibition at 10000 µg/mL [4] |
| --- | --- | --- | --- | --- |
| NC(=O)c1ncn([C@@H]2O[C@H](CO)[C@@H](O)[C@H]2O)n1 [RIBAVIRIN] | 66.7 µM | 99.6 µM | 1370 µM |  |
| CCCCCCCc1coc(=O)c(C)c1OC | 30.6 µM | 45.3 µM | 2230 µM | 0 mm |
| CCC(C)CCCCc1coc(=O)c(C)c1O (stereo not given) | 79.3 µM | 82.3 µM | 1620 µM | 18 mm |
| CCCCCCCc1coc(=O)c(C)c1O | 74.3 µM | 74.3 µM | 2200 µM | 11 mm |
| Cc1c(O)c(CCCC(C)C)coc1=O | 60.9 µM | 104 µM | 1240 µM | 0 mm |
| Cc1c(O)c(CCCCC(C)C)coc1=O | 132 µM | 150 µM | 1290 µM | 11 mm |
| COc1c(CCCCC(C)C)coc(=O)c1C | 64.9 µM | 63.9 µM | 1880 µM | 6 mm |
| CCC(C)CCCCc1coc(=O)c(C)c1OC (stereo not given) | 68.4 µM | 72.8 µM | 1550 µM | 0 mm |
| COc1c(CCCC(C)C)coc(=O)c1C | 58.8 µM | 95 µM | 2000 µM | 0 mm |
